Experimental data taken from US6828473B2, “Modulation of PDE11A activity” (Pfizer Inc., priority 2000, dated 2004).
Structures can show the parent of a compound that is named as a salt.

Experiments:
recombinant human PDE7 = test: PDE inhibition SPA assay, PDE7; type: biochemical; settings: geometric mean of at least 3 determinations; substrate <= 1/3 Km
recombinant human PDE8 = test: PDE inhibition SPA assay, PDE8; type: biochemical; settings: geometric mean of at least 3 determinations; substrate <= 1/3 Km
[1] = target: T1, PDE6 isolated from bovine retina (Bos taurus, UniProt P11541+P23439); test: PDE inhibition SPA assay, PDE6; type: biochemical
T1 construct: PDE6 was isolated from bovine retina; from tissue; host or cells: bovine retina
T1 sequence (P11541 2-856 limits assumed): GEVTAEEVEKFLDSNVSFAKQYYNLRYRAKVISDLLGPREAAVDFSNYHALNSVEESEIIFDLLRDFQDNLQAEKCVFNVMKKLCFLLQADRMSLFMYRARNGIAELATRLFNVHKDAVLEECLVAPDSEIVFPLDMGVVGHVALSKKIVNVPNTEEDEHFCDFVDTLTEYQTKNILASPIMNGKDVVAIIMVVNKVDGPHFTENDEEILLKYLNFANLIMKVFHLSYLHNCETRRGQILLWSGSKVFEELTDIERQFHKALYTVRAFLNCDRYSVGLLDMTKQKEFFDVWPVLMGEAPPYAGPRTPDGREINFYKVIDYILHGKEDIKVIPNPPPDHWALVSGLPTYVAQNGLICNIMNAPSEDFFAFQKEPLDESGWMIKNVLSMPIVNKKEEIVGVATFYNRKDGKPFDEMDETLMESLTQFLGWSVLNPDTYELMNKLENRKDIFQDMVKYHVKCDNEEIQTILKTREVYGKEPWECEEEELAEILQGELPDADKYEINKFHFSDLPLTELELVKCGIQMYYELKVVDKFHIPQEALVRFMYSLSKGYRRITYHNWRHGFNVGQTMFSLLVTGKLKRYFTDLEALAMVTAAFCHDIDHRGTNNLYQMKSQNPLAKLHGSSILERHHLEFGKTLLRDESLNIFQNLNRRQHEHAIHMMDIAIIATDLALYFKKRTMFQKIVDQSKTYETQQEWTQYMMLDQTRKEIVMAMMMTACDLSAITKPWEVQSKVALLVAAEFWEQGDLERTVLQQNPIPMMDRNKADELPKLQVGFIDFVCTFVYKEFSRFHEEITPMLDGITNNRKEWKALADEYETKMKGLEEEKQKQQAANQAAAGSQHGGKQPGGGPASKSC
T1 sequence (P23439 2-850 limits assumed): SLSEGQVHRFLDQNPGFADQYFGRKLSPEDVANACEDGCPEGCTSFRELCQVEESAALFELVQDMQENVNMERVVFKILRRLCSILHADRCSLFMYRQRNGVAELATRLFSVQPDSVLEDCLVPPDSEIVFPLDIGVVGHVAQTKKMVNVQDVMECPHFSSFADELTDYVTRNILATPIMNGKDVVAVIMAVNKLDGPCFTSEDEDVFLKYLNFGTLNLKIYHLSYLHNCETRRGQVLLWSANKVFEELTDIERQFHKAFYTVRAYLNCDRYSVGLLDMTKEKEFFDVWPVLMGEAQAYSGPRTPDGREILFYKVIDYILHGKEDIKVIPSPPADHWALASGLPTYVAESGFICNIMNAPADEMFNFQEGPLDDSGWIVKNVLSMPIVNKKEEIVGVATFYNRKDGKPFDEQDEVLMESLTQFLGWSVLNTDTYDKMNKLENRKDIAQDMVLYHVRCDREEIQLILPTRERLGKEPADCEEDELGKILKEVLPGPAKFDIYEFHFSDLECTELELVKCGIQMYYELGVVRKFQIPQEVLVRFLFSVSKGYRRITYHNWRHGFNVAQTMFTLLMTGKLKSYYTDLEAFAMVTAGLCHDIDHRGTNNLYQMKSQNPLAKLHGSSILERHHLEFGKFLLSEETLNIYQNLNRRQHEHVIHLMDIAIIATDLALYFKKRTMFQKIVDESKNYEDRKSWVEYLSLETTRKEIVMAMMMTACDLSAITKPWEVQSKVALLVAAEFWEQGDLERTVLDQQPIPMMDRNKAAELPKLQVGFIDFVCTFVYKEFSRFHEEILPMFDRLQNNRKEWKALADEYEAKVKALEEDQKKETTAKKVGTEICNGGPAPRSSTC

[2] = test system: pre-ejaculated epididymal murine spermatozoa; test: Sperm capacitation measured with chlorotetracycline (CTC); type: cell-based, mouse; settings: for number of capacitated sperm: P<0.001
Protocol: The extent of capacitation was measured using chlorotetracycline (CTC) and the degree of capacitation was assessed in control and adenosine-5′-triphosphate (ATP)-treated samples. All data is expressed as mean+s.e.mean, n=3, ***=P<0.001, Student's t-test).
Sperm suspensions were prepared by releasing the contents of mouse epididymides from 3 PDE11 knockout (KO) and 3 wild type (WT) mice into Tyrodes media. The extent of capacitation was measured using chlorotetracycline (CTC), 750 μM for 15 min at 37° C. The patterns of CTC fluorescence were observed under microscopy (Reference: Fraser, L. R. & Herod, J. E. Expression of capacitation-dependent changes in chlortetracycline fluorescence patterns in mouse spermatozoa requires a suitable glycolysable substrate. J. Reprod. Fert., 1990; 88(2): 611-21). Patterns reflected the functional state of spermatozoa, i.e. capacitated, uncapacitated and acrosome loss.

SMILES | IC50 (recombinant human PDE7) | IC50 (recombinant human PDE8) | IC50 [1] | number of capacitated murine spermatozoa ([2]; 1 hr incubation, both PDE11 KO and WT samples, concentration not given) | number of capacitated sperm ([2]; ATP 1.0 mM, spermatozoa obtained from PDE11 KO mice only) | number of capacitated sperm ([2]; ATP 2.5 mM, 1 hr incubation, all murine spermatozoa samples (PDE11 KO and WT))
CCCc1nn(C)c2c(=O)[nH]c(-c3cc(S(=O)(=O)N4CCN(C)CC4)ccc3OCC)nc12 [Sildenafil, sildenafil] | 19.7 µM |  |  |  |  | 
O=C(O)C1CCN(c2nc(NCc3ccc4c(c3)OCO4)c3cc(Cl)ccc3n2)CC1 [UK-227,786 (E4021), 1-[4-[(1,3-benzodioxol-5-ylmethyl)amino]-6-chloro-2-quinazolinyl]-4-piperidinecarboxylic acid, monohydrochloride] | > 100 µM | > 100 µM | 4.7 µM |  |  | 
CN1CC(=O)N2[C@H](c3ccc4c(c3)OCO4)c3[nH]c4ccccc4c3C[C@@H]2C1=O [UK-336,017 (IC351), (6R, 12aR)-6-(1,3-benzodioxol-5-yl)-2,3,6,7,12,12a-hexahydro-2-methyl-pyrazino[1′,2′:1,6]pyrido[3,4-b]indole-1,4-dione] | > 100 µM | > 100 µM |  |  |  | 
Nc1ncnc2c1ncn2[C@@H]1O[C@H](COP(=O)(O)OP(=O)(O)OP(=O)(O)O)[C@@H](O)[C@H]1O [ATP, adenosine-5′-triphosphate] |  |  |  | significantly increased | significantly increased | significantly increased
